In PubChem BioAssay (NCI):
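Dose response: 5 concentrations. Exposure: 48 h. Format: 96-well plates. Endpoint: linear interpolation; highest concentration if not reached. Abbreviation: GI50, concentration required for 50% inhibition of growth. TGI: concentration producing complete growth inhibition.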

What was measured:
Experiment in all cases: NCI tumour cell line growth inhibition, 48 h
HL-60(TB) leukemia = tested on: HL-60(TB) leukemia
NCI-H23 lung = tested on: NCI-H23 lung
SW-620 colon = tested on: SW-620 colon
SF-539 CNS = tested on: SF-539 CNS
SR leukemia = tested on: SR leukemia
NCI-H460 lung = tested on: NCI-H460 lung
HS 578T breast = tested on: HS 578T breast
SK-MEL-2 melanoma = tested on: SK-MEL-2 melanoma

Compound | GI50 (HL-60(TB) leukemia) [µM] | TGI (HL-60(TB) leukemia) [µM] | GI50 (NCI-H23 lung) [µM] | TGI (NCI-H23 lung) [µM] | GI50 (SW-620 colon) [µM] | TGI (SW-620 colon) [µM] | GI50 (SF-539 CNS) [µM] | TGI (SF-539 CNS) [µM] | GI50 (SR leukemia) [µM] | TGI (SR leukemia) [µM] | GI50 (NCI-H460 lung) [µM] | TGI (NCI-H460 lung) [µM] | GI50 (HS 578T breast) [µM] | TGI (HS 578T breast) [µM] | GI50 (SK-MEL-2 melanoma) [µM] | TGI (SK-MEL-2 melanoma) [µM]
N#C[Se]CCN1C(=O)c2ccccc2C1=O | 2.23 | 5.71 | 2.93 | 18.8 | 2.38 | 5.66 | 1.92 | 6.85 | 3.21 | 23.9 | 2.25 | 11.4 | 1.43 | 6.09 | 3.71 | 19.1
O=S(=O)(O)C(c1ccccc1)C(O)c1ccccc1 (stereo unspecified) | – | > 100 | – | > 100 | – | > 100 | – | – | – | > 100 | – | > 100 | – | > 100 | – | > 100
NS(=O)(=O)c1cc2c(cc1Cl)NCNS2(=O)=O | – | > 100 | – | > 100 | – | > 100 | – | > 100 | – | > 100 | – | > 100 | – | > 100 | – | > 100
Oc1c(Br)cc(Cl)cc1C(c1cc(Cl)cc(Br)c1O)C(Cl)(Cl)Cl | 3.02 | 7.6 | 1.8 | 7.01 | 3.28 | 13 | 3.15 | 10.7 | – | – | 2.4 | 8.53 | 2.46 | > 21.9 | 2.31 | 5.08
CN(C)c1ccc(/C=N/N=C(\C#N)[S][Sn]([Cl])([c]2ccccc2)[c]2ccccc2)cc1 | 0.548 | 5.16 | 1.44 | 3.21 | 0.853 | 2.45 | 1.7 | 3.3 | 1.57 | 8.57 | 2.18 | 4.75 | 2.7 | 9.19 | 1.74 | 3.43
CC(C)c1ccc2c(c1)CCC1C2CCCC1(C)NCc1ccccc1 (stereo unspecified) | 2.34 | 6.85 | 5.48 | 19.7 | 2.17 | 6.1 | 5.5 | 18.5 | 1.8 | 6.3 | 3.43 | 12.9 | 4.99 | 23.7 | 2.04 | 4.16
COc1ccccc1CNCCCN1C(=O)c2ccc3c4c(ccc(c24)C1=O)C(=O)N(CCCNCc1ccccc1OC)C3=O | 0.212 | 0.453 | 0.179 | 0.443 | 0.0861 | 0.298 | 0.221 | 0.612 | 0.264 | 0.928 | 0.167 | 0.421 | 0.59 | 2.13 | 0.203 | 0.427
CC(=O)O[C@H]1C[C@@H]2[C@@]3(C)CC[C@H]4C[C@@]4(C)[C@@H]3CC[C@@]2(C)C2=CCC3=C(COC3=O)[C@]21C | 52.7 | > 100 | 20.1 | 49.9 | 19.4 | 43.6 | 15.7 | 32.5 | > 100 | > 100 | 29.9 | > 100 | 10.2 | 27.3 | 36.3 | > 100
CNCc1cccc2c1OCCOCCOCCNS(=O)(=O)c1ccc(cc1)-c1cnc(N)c(n1)C(=O)N2 | 0.452 | 1.89 | 2.22 | 7.72 | 0.875 | 3.13 | 1.11 | 2.38 | 0.346 | 13.3 | 1 | 3.25 | 0.477 | 3.05 | 1.76 | 4.41
OC[C@H]1C[C@](O)(c2ccc(F)cc2)[C@@H](c2ccc(F)cc2)O1 | > 100 | > 100 | > 100 | > 100 | > 100 | > 100 | > 100 | > 100 | > 100 | > 100 | > 100 | > 100 | 44.2 | > 100 | – | –
O=C(NO)c1ccc(CNc2cccc3nc(C4CC4)n(-c4ccccc4)c(=O)c23)cc1 | 2.39 | 5.64 | – | – | 1.81 | 6.01 | 1.71 | 3.53 | 0.877 | > 100 | 1.9 | 5.65 | 2.5 | 20.6 | 2.76 | 7.45
CCOC(=O)C#Cc1c(C(=O)OCC)nnn1[C@@H]1O[C@H](COC)[C@@H](OC)[C@H]1OC | 1.98 | 5.41 | 12.3 | 26.3 | 1.99 | 4.06 | – | – | 1.64 | 4.66 | 17.8 | 36.2 | 23.7 | 72.7 | 16.6 | 32.9
COc1cc(/C=C/c2cc(/C=C/c3ccc(O)c(OC)c3)n(C(=O)Nc3ccc(C)cc3)n2)ccc1O | 0.261 | 0.657 | 0.586 | 3.99 | 0.465 | 3.44 | 0.442 | 2.47 | 0.0268 | 0.15 | 0.339 | 1.86 | 0.278 | 0.689 | 0.681 | 3.97
COc1ccc([C@@H]2[C@@H](Oc3ccccc3)C(=O)N2c2cc(OC)c(OC)c(OC)c2)cc1F | 0.24 | 0.609 | 0.7 | > 100 | 0.0769 | > 100 | 0.0735 | 0.709 | 0.0778 | > 100 | 0.155 | > 100 | 0.0864 | 77.9 | 0.447 | > 100
O=C(O)c1cn(C2CC2)c2cc(N3CCN(C(=O)N(c4ccccc4)c4nc(-c5ccccc5)cs4)CC3)c(F)cc2c1=O | – | – | – | – | – | – | – | – | – | – | 0.296 | > 100 | 0.393 | > 100 | 0.554 | 2.92
O=c1c(Oc2ccc(F)cc2F)cc2cnc(NC3CCOCC3)nc2n1C1CC1 | > 25 | > 25 | > 25 | > 25 | > 25 | > 25 | > 25 | > 25 | > 25 | > 25 | > 25 | > 25 | > 16.9 | > 25 | > 25 | > 25
